Literature values in patent US7838081B2, “Liquor that avoids the apparition of stains produced by fungi in lignocellulosic materials such as wood” (priority 2005, dated 2010).

| Compound | Results against stains of the wood (in words) (stains of the wood) | LD50 acute termal rabbit (rabbit) [mg/kg] | LD50 acute oral rat (rat) [mg/kg] |
| --- | --- | --- | --- |
| Oc1c(Cl)c(Cl)c(Cl)c(Cl)c1Cl [Pentachlorophenol] | good results |  |  |
| [Cu+2].[O-]c1cccc2cccnc12.[O-]c1cccc2cccnc12 [Copper 8 oxiquinolinate (PQ-8), Copper 8 oxiquinolinate] |  | >2.000 | 3.900 to 4.700 |
| Oc1c(Br)cc(Br)cc1Br [2,4,6 Tribromophenol] | good results | >8.000 | >5.000 |
